In the PolyMetriX glass transition set:

SMILES | glass transition temperature [°C]
*CC(*)(C)C(=O)OCCCCCCCCCCn1c2ccccc2c2cc(/N=N/c3ccc([N+](=O)[O-])cc3[N+](=O)[O-])ccc21 (repeat unit) | 60.00
*CC(F)(F)C(F)(F)C(F)(F)COC(=O)c1cccc(C(F)(F)C(F)(F)C(F)(F)C(F)(F)C(F)(F)c2cccc(C(=O)O*)c2)c1 (repeat unit) | 29.00
*Oc1c(C)cc(*)cc1C(C)CCCCCCCCCCCC (repeat unit) | -10.00
*c1ccc(-c2ccc(-c3cc(CCCCCCCC)c(-c4ccc(-c5sc(*)cc5CCCCCCCC)cc4)s3)cc2)cc1 (repeat unit) | 0.60
*CC(C)(C)COC(=O)Nc1ccc(C)c(NC(=O)O*)c1 (repeat unit) | -32.00
*C(=O)c1ccc(C(C)(CC)c2ccc(C(=O)N3CCN(*)CC3)cc2)cc1 (repeat unit) | 232.00
*Oc1ccc(CC(Cc2ccc(*)cc2)(C(=O)OCC)C(=O)OCC)cc1 (repeat unit) | 54.00
*CC(*)OC(F)(C(F)(F)F)C(F)(F)F (repeat unit) | 65.00
*c1cccc(-c2ccc3[nH]c(S(=O)(=O)c4nc5ccc(*)cc5[nH]4)nc3c2)c1 (repeat unit) | 290.00
*CCCCOC(=O)c1ccc(N/C=N/c2ccc(C(=O)O*)cc2)cc1 (repeat unit) | 91.00
*CC(O)COc1ccc(C(C)(C)c2ccc(OCC(O)COc3cccc(NC(=O)CCCCCC(=O)Nc4cccc(O*)c4)c3)cc2)cc1 (repeat unit) | 107.00
*CCCCCCOC(=O)CC(=O)OCCCCCCOc1ccc(-n2on2-c2ccc(O*)cc2)cc1 (repeat unit) | 16.00
*Oc1cccc(NC(=O)CCCCCCCC(=O)Nc2ccc(*)cc2)c1 (repeat unit) | 120.00
*Oc1ccc(S(=O)(=O)c2ccc(Oc3ccc(C4(c5ccc(*)cc5)C5CC6CC(C5)CC4C6)cc3)cc2)cc1 (repeat unit) | 297.00
*Oc1c(C)cc(C(C)(C)c2cc(C)c(OC(*)=O)c(Cl)c2)cc1Cl (repeat unit) | 154.00
*CC(*)(C)C(=O)NC(=O)OCCOc1c(Br)cc(S(=O)(=O)c2cc(Br)c(OCCO)c(Br)c2)cc1Br (repeat unit) | 110.00
*CC(O)CN(CC(O)COc1ccc(C(C)(C)c2ccc(O*)cc2)cc1)c1ccc(C#N)cc1 (repeat unit) | 100.00
*c1ccc(C(=O)NCCCCCCCCNC(=O)c2ccc(-c3nc4ccccc4nc3*)cc2)cc1 (repeat unit) | 185.00
*O[Si](*)(C)CCCC(=O)OCCCC (repeat unit) | -91.00
*c1cccc(P(C)(=O)c2cccc(N3C(=O)c4ccc(Oc5ccc(C(C)(C)c6ccc(Oc7ccc8c(c7)C(=O)N(*)C8=O)cc6)cc5)cc4C3=O)c2)c1 (repeat unit) | 228.00
*Oc1ccc(CC(NC(=O)CCc2ccc(OC(=O)CCC(*)=O)cc2)C(=O)OCC(C)C)cc1 (repeat unit) | 75.00

SMILES | glass transition temperature [°C]
*CCCCOC(=O)NCCCCCCNC(=O)O* (repeat unit) | 33.50
*N=P(*)(C)CCCCCC (repeat unit) | -69.00
*C(=O)OCCCCCCCCOC(=O)c1ccc(N2C(=O)c3ccc(*)cc3C2=O)cc1 (repeat unit) | 65.00
*CC(*)(C)C(=O)OCC1CCCO1 (repeat unit) | 105.00
*C1C(=O)N(C2CCCCC2)C(=O)C1* (repeat unit) | 232.00
*CCCCCCC(c1ccc(O)cc1)C(*)c1ccc(O)cc1C (repeat unit) | 18.00
*c1ccc(Oc2ccc(C(=O)c3ccc(-c4ccc(C(=O)c5ccc(Oc6ccc(-c7nc(-c8cccc(-c9nc(*)c(-c%10ccccc%10)[nH]9)c8)[nH]c7-c7ccccc7)cc6)cc5)cc4)cc3)cc2)cc1 (repeat unit) | 276.00
*Oc1ccc(C(=O)c2cccc(NC(=O)c3ccc(C(=O)Nc4cccc(C(=O)c5ccc(*)cc5)c4)cc3)c2)cc1 (repeat unit) | 189.00
*CCCCCCCCCc1nc2ccc(-c3ccc4nc(*)oc4c3)cc2o1 (repeat unit) | 64.00
*CC(*)c1ccc(COC(C)CC)cc1 (repeat unit) | 40.00
*Oc1ccc2cc(Oc3ccc(S(=O)(=O)c4ccc(Oc5ccc(C(=O)c6ccc(*)cc6)cc5)cc4)cc3)ccc2c1 (repeat unit) | 199.00
*CC(*)c1ccc(COCCC(F)(F)C(F)(F)C(F)(F)C(F)(F)C(F)(F)C(F)(F)C(F)(F)C(F)(F)F)cc1 (repeat unit) | 55.00
*CC(*)C(=O)OCCCOC (repeat unit) | -66.50
*c1ccc(-c2cnc3cc(-c4ccc5nc(*)cnc5c4)ccc3n2)cc1 (repeat unit) | 350.00
*CCCCCCS(=O)(=O)c1ccc(/N=N/c2ccc(N(C)CCCCCC(=O)O*)cc2)cc1 (repeat unit) | 60.50
*CC(*)(C#N)C(=O)OC(C)C (repeat unit) | 66.00
*CCc1ccc(CCNC(=O)CCCCCCCCC(=O)N*)cc1 (repeat unit) | 105.00
*CC(*)(CC(=O)OCCCl)C(=O)OCCCl (repeat unit) | 43.00
*CC(C(C)C)C(COC(=O)c1ccc(C(=O)O*)cc1)C(C)C (repeat unit) | 65.00
*CC(*)C(=O)OCCCCCCOc1ccc(-c2ccc(C#N)cc2)cc1 (repeat unit) | 45.00
*O[Si](C)(C)O[Si](*)(C)CCCCOc1ccc(-c2ccc(C#N)cc2)cc1 (repeat unit) | -5.50

The next lines start with the values.

glass transition temperature [°C] | SMILES
181.00 | *Oc1ccc(C(c2ccc(OC(=O)c3ccc(Oc4ccc(C(*)=O)cc4)cc3)cc2)(C(F)(F)F)C(F)(F)F)cc1 (repeat unit)
398.50 | *c1ccc(-c2cc(C(C)(C)C)c(Oc3ccc(-n4c(=O)c5cc6c(=O)n(*)c(=O)c6cc5c4=O)cc3)c(C(C)(C)C)c2)cc1 (repeat unit)
311.00 | *C(=O)Nc1cccc(NC(=O)c2ccc3c(c2)C(=O)N(c2ccc(S(=O)(=O)c4ccc(N5C(=O)c6ccc(*)cc6C5=O)cc4)cc2)C3=O)c1 (repeat unit)
144.00 | *c1ccc2c(c1)C(=O)N(c1cccc(C(F)(F)C(F)(F)C(F)(F)C(F)(F)C(F)(F)c3cccc(N4C(=O)c5ccc(C(F)(F)C(F)(F)C(F)(F)C(*)(F)F)cc5C4=O)c3)c1)C2=O (repeat unit)
258.00 | *c1ccc(Cc2ccc(NC(=O)c3ccc(Oc4cccc5c4C(=O)N(*)C5=O)cc3)cc2)cc1 (repeat unit)
155.00 | *CCCC(C)CN1C(=O)c2ccc(C(=O)Oc3ccc(-c4ccc(OC(=O)c5ccc6c(c5)C(=O)N(*)C6=O)cc4)cc3)cc2C1=O (repeat unit)
257.00 | *c1ccc2c(c1)C(=O)N(c1ccc(Sc3ccc(Sc4ccc(N5C(=O)c6ccc(C(*)(C(F)(F)F)C(F)(F)F)cc6C5=O)cc4)cc3)cc1)C2=O (repeat unit)
254.00 | *c1ccc(Oc2ccc(C3(c4ccc(Oc5ccc(N6C(=O)c7ccc(Oc8ccc(C9(c%10ccc(Oc%11ccc%12c(c%11)C(=O)N(*)C%12=O)cc%10)CCCCCCCCCCC9)cc8)cc7C6=O)cc5)cc4)CCC(C(C)(C)C)CC3)cc2)cc1 (repeat unit)
324.00 | *C(=O)c1ccc2c(c1)C(=O)N(c1cc(N3C(=O)c4ccc(*)cc4C3=O)c(O)cc1O)C2=O (repeat unit)
262.00 | *c1ccc(-c2ccc(N3C(=O)c4ccc(Oc5c(C)cc(C(C)(C)c6cc(C)c(Oc7ccc8c(c7)C(=O)N(*)C8=O)c(C)c6)cc5C)cc4C3=O)cc2C(F)(F)F)c(C(F)(F)F)c1 (repeat unit)
302.00 | *C(=O)Nc1ccc(Oc2ccc(S(=O)(=O)c3ccc(Oc4ccc(NC(=O)c5ccc6c(c5)C(=O)N(c5ccc(Oc7ccc(C8(c9ccc(Oc%10ccc(N%11C(=O)c%12ccc(*)cc%12C%11=O)cc%10)cc9)NC(=O)c9ccccc98)cc7)cc5)C6=O)cc4)cc3)cc2)cc1 (repeat unit)
298.00 | *c1ccc(Oc2ccc(NC(=O)c3ccc4c(c3)C(=O)N(c3ccc(Sc5ccc(N6C(=O)c7ccc(C(=O)Nc8ccc(Oc9ccc(C%10(*)NC(=O)c%11ccccc%11%10)cc9)cc8)cc7C6=O)cc5)cc3)C4=O)cc2)cc1 (repeat unit)
241.00 | *c1ccc(C(=O)Nc2cccc(Oc3ccc(S(=O)(=O)c4ccc(Oc5cccc(NC(=O)c6ccc(N7C(=O)c8ccc(-c9cccc%10c9C(=O)N(*)C%10=O)cc8C7=O)cc6)c5)cc4)cc3)c2)cc1 (repeat unit)
292.00 | *C(=O)Nc1ccc(C(c2ccc(NC(=O)c3ccc4c(c3)C(=O)N(c3ccc(Oc5ccc6ccc(Oc7ccc(N8C(=O)c9ccc(*)cc9C8=O)cc7)cc6c5)cc3)C4=O)cc2)(C(F)(F)F)C(F)(F)F)cc1 (repeat unit)
98.00 | *CCCCCCCCCCCC(=O)Oc1ccc2ccc(OC(=O)c3ccc4c(c3)C(=O)N(*)C4=O)cc2c1 (repeat unit)
242.00 | *C(=O)c1ccc2c(c1)C(=O)N(c1cccc(C(=O)c3cccc(N4C(=O)c5ccc(*)cc5C4=O)c3)c1)C2=O (repeat unit)
368.00 | *C(=O)Nc1cc(NC(=O)c2ccc3c(c2)C(=O)N(c2cc(-c4nc5ccccc5s4)cc(N4C(=O)c5ccc(*)cc5C4=O)c2)C3=O)cc(-c2nc3ccccc3[nH]2)c1 (repeat unit)
276.00 | *c1ccc(Cc2ccc(N3C(=O)CC(Nc4ccc(N(c5ccc(NC6CC(=O)N(*)C6=O)cc5)c5ccc([N+](=O)[O-])cc5)cc4)C3=O)cc2)cc1 (repeat unit)
267.00 | *C(=O)c1ccc2c(c1)C(=O)N(c1ccc(Oc3ccc(C(C)(C)c4ccccc4)cc3)c(N3C(=O)c4ccc(*)cc4C3=O)c1)C2=O (repeat unit)
105.00 | *C(=O)OCCCCCCCCCCCCOC(=O)c1ccc2c(c1)C(=O)N(c1ccc(Oc3ccc(N4C(=O)c5ccc(*)cc5C4=O)cc3)cc1)C2=O (repeat unit)
